In patent publication US20250313563A1, “GLYCOGEN SYNTHASE KINASE 3 INHIBITORS AND USES THEREOF” (The Broad Institute, Inc., priority 2022, published 2025):
Like-named read-outs stand apart in the source and are kept apart here.

Assays:
[1] = biological target: GSK3α (GST-full length GSK3α) (Homo sapiens (Human), UniProt P49840); experiment: GSK3α TR-FRET kinase assay; assay type: biochemical; details: IC50
Method in brief: (§1)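 IC50 came from the normalized 665/615 nm TR-FRET ratio plotted against log compound concentration. The Tb-labelled pSer641 antibody and streptavidin-d2 detected phosphorylation of biotinylated S645-primed glycogen synthase peptide (200 nM) by 1 nM full-length GST-kinase. ATP was 4 μM for α, 2 μM for β, or 1 mM.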

[2] = biological target: GSK3b (GST-full length GSK3b) (Homo sapiens (Human), UniProt P49841); experiment: GSK3b TR-FRET kinase assay; assay type: biochemical; details: IC50
Method in brief: as §1

[3] = 1 nM GSK3α, 4 μM ATP, 30 minute preincubation, Table 16, read-out: GSK3-A TR-FRET BIOCHEMICAL (TR-FRET)
[4] = 1 nM GSK3b, 2 μM ATP, 30 minute preincubation, Table 16, read-out: GSK3-B TR-FRET BIOCHEMICAL (TR-FRET)
[5] = read-out: GSK3-A (TR-FRET 1 mM ATP), GMean, 1 mM ATP, geometric mean
[6] = read-out: GSK3-B (TR-FRET 1 mM ATP), GMean, 1 mM ATP, geometric mean
[7] = 1 nM GSK3α, 4 μM ATP, 30 minute preincubation, read-out: GSK3-A TR-FRET BIOCHEMICAL (TR-FRET)
[8] = 1 nM GSK3b, 2 μM ATP, 30 minute preincubation, read-out: GSK3-B TR-FRET BIOCHEMICAL (TR-FRET)

Sequence of GSK3α (GST-full length GSK3α) (P49840 whole entry): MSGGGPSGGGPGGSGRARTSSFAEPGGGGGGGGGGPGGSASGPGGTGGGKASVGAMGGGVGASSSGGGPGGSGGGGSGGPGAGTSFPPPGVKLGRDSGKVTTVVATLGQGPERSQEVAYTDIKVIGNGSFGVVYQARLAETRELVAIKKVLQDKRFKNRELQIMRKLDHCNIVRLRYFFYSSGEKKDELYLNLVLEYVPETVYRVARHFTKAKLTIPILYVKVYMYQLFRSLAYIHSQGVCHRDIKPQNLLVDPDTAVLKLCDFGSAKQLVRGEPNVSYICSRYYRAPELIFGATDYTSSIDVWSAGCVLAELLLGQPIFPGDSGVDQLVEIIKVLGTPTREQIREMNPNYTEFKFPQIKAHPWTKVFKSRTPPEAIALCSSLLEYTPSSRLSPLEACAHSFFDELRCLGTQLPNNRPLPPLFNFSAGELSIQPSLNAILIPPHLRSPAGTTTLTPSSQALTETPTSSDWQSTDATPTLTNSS
Sequence of GSK3b (GST-full length GSK3b) (P49841 whole entry): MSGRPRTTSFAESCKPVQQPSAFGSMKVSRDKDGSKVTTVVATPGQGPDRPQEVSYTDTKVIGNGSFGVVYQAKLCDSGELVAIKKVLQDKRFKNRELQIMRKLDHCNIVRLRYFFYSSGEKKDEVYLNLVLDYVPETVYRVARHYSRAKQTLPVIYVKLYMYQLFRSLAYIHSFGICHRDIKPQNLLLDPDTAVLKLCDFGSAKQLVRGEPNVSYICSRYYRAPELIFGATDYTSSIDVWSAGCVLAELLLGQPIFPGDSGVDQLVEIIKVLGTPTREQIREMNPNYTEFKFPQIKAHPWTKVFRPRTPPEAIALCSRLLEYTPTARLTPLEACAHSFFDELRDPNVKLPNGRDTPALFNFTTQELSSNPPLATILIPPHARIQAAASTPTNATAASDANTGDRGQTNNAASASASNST

Row | SMILES | IC50 [1, 3] [nM] | IC50 [2, 4] [nM] | IC50 [1, 5] [nM] | IC50 [2, 6] [nM] | IC50 [1, 7] [nM] | IC50 [2, 8] [nM]
1 | CC[C@@]1(c2cccc(-c3cn(C)nc3C(C)C)c2)C2=C(CC(C)(C)CC2=O)Nc2n[nH]c(C)c21 [Compound 913029] | ≤ 100 | ≤ 100 |  |  |  | 
2 | CC[C@@]1(c2cccc(-c3cncn3C)c2)C2=C(CC(C)(C)CC2=O)Nc2n[nH]c(C)c21 [Compound 913032] | ≤ 100 | ≤ 100 | ≤ 100 | ≤ 100 |  | 
3 | CCC1(c2cccc(-c3cn(C)nc3C)c2)C2=C(CC(C)(C)CC2=O)Nc2n[nH]c(C)c21 (stereo not shown) [Compound 913034] | 1000 to 5000 | > 5000 |  |  |  | 
4 | CC[C@]1(c2cccc(-c3cn(C)nc3C)c2)C2=C(CC(C)(C)CC2=O)Nc2n[nH]c(C)c21 [Compound 913035] | ≤ 100 | ≤ 100 | ≤ 100 | 100 to 1000 |  | 
5 | CCC1(c2cccc(-c3cnn4c3CCCC4)c2)C2=C(CC(C)(C)CC2=O)Nc2n[nH]c(C)c21 (stereo not shown) [Compound 913036] | ≤ 100 | ≤ 100 | ≤ 100 | 100 to 1000 |  | 
6 | CCC1(c2cccc(-c3cnn(C)c3)c2)C2=C(CC(C)(C)CC2=O)Nc2n[nH]c(C)c21 (stereo not shown) [Compound 913038] | 100 to 1000 | 1000 to 5000 |  |  |  | 
7 | CC[C@]1(c2cccc(-c3c(C)nn(C)c3C)c2)C2=C(CC(C)(C)CC2=O)Nc2n[nH]c(C)c21 [Compound 913043] | ≤ 100 | ≤ 100 | ≤ 100 | 100 to 1000 |  | 
8 | CCC1(c2cccc(-c3cn[nH]c3)c2)C2=C(CC(C)(C)CC2=O)Nc2n[nH]c(C)c21 (stereo not shown) [Compound 913044] | 100 to 1000 | 100 to 1000 |  |  |  | 
9 | CCC1(c2cccc(-c3ccnc(C(F)(F)F)c3)c2)C2=C(CC(C)(C)CC2=O)Nc2n[nH]c(C)c21 (stereo not shown) [Compound 913049] | 100 to 1000 | > 5000 |  |  |  | 
10 | CC[C@]1(c2cccc(-c3cc(C)ncc3C)c2)C2=C(CC(C)(C)CC2=O)Nc2n[nH]c(C)c21 [Compound 913050] | ≤ 100 | ≤ 100 | ≤ 100 | 100 to 1000 |  | 
11 | CCC1(c2cccc(-c3ccnc(C)c3)c2)C2=C(CC(C)(C)CC2=O)Nc2n[nH]c(C)c21 (stereo not shown) [Compound 913051] | 100 to 1000 | > 5000 |  |  |  | 
12 | CCC1(c2cccc(-c3ccnc(OC)c3)c2)C2=C(CC(C)(C)CC2=O)Nc2n[nH]c(C)c21 (stereo not shown) [Compound 913053] | ≤ 100 | ≤ 100 |  |  |  | 
13 | CC1(C)CC(=O)C2=C(C1)Nc1n[nH]cc1C21CCC2(CCC(=O)N2)CC1 (stereo not shown) [Compound 913056] |  |  |  |  | 100 to 1000 | 1000 to 5000
14 | CC(=O)N1CC2(C1)CC1(CO2)C2=C(CC(C)(C)CC2=O)Nc2n[nH]cc21 (stereo not shown) [Compound 913058] |  |  | ≤ 100 | 100 to 1000 | ≤ 100 | ≤ 100
15 | CCC1(c2cccc(N(C)c3cccc(OC)n3)c2)C2=C(CC(C)(C)CC2=O)Nc2n[nH]cc21 (stereo not shown) [Compound 913121] | ≤ 100 | 100 to 1000 |  |  |  | 

The next lines start with the values.

Row | IC50 [1, 3] [nM] | IC50 [2, 4] [nM] | IC50 [1, 5] [nM] | IC50 [2, 6] [nM] | IC50 [1, 7] [nM] | IC50 [2, 8] [nM] | SMILES
16 | ≤ 100 | ≤ 100 |  |  |  |  | CCC1(c2cccc(-c3cnn(C)c3)c2)C2=C(CC(C)(C)CC2=O)Nc2n[nH]c(C)c21 (stereo not shown) [Compound 913031]
17 | 100 to 1000 | 1000 to 5000 |  |  |  |  | CCC1(c2cccc(-c3cnn4c3CCCC4)c2)C2=C(CC(C)(C)CC2=O)Nc2n[nH]c(C)c21 (stereo not shown) [Compound 913033]
18 | ≤ 100 | 100 to 1000 |  |  |  |  | CC[C@]1(c2cccc(-c3cncn3C)c2)C2=C(CC(C)(C)CC2=O)Nc2n[nH]c(C)c21 [Compound 913037]
19 | 1000 to 5000 | > 5000 |  |  |  |  | CCC1(c2cccc(-c3ccn(C)n3)c2)C2=C(CC(C)(C)CC2=O)Nc2n[nH]c(C)c21 (stereo not shown) [Compound 913039]
20 | 100 to 1000 | 1000 to 5000 |  |  |  |  | CC[C@]1(c2cccc(-c3cn(C)nc3C(C)C)c2)C2=C(CC(C)(C)CC2=O)Nc2n[nH]c(C)c21 [Compound 913040]
21 | > 5000 | > 5000 |  |  |  |  | CC[C@]1(c2cccc(-c3cnn(CCOC)c3)c2)C2=C(CC(C)(C)CC2=O)Nc2n[nH]c(C)c21 [Compound 913042]
22 |  |  | ≤ 100 | 100 to 1000 |  |  | CCC1(c2cccc(-c3cnn(C)c3C)c2)C2=C(CC(C)(C)CC2=O)Nc2n[nH]c(C)c21 (stereo not shown) [Compound 913045]
23 | ≤ 100 | ≤ 100 | ≤ 100 | 100 to 1000 |  |  | CC[C@]1(c2cccc(-c3ccncc3C)c2)C2=C(CC(C)(C)CC2=O)Nc2n[nH]cc21 [Compound 913047]
24 | ≤ 100 | ≤ 100 | ≤ 100 | 100 to 1000 |  |  | CCC1(c2cccc(-c3ccncc3F)c2)C2=C(CC(C)(C)CC2=O)Nc2n[nH]c(C)c21 (stereo not shown) [Compound 913052]
